According to US20110224256A1, “T[…] THE TREATMENT OF PSYCHIATRIC DISORDERS” (priority 2008, published 2011):
Entries after “also recorded” stand apart in the source; their conditions may differ.

How the values were obtained:
Sprague-Dawley male rats [1] = assay: Place conditioning to 10 mg/kg cocaine at P60 after juvenile drug exposure; format: in vivo; conditions: for place conditioning to cocaine-associated environment (pre- vs. post-conditioning): tested at P60, 10 mg/kg cocaine
Experimental: Juvenile Sprague-Dawley male rats were treated with MPH (2 mg/kg, i.p. twice daily), ±7-OHDPAT (0.3 mg/kg, i.p. twice daily), Naf (0.05, 0.5 and 5 mg/kg; i.p. twice daily) or VEH (i.p. twice daily) between the ages of P20 and P35 (Andersen et al., Nat. Neurosci., 5:13-14 (2002)). The MPH dose was selected on the basis of previous studies (see Andersen et al., Nat. Neurosci., 5:13-14 (2002); Bolanos et al., Biol. Psychiatry, 54:1317-1329 (2003); and Mague et al., Biol. Psychiatry, 57:120-125 (2005)), unpublished observations that we find similar behavioral effects if MPH is given i.p. or orally at this dose, and evidence that it approximates a clinically relevant dose in humans based on plasma levels (see Wargin et al., J. Pharmacol. Exp. Ther., 226:382-386 (1983); and Kuczenski, R. & Segal, D. S. J. Neurosci., 22:7264-7271 (2002)). Clinically therapeutic doses of MPH yield plasma levels between 8 and 40 ng/mL (Swanson et al., Behay. Brain Res., 130:73-78 (2002); Teicher et al., Ann. N. Y. Acad. Sci., 1071:313-323 (2006)), with 0.5 mg/kg i.p., achieving plasma levels of 36 ng/mL within 5 min in rats (Berridge et al., Biol. Psychiatry, 60:1111-1120 (2006)). Doses for juvenile exposure to ±7-OHDPAT are based on Neisewander et al., Neuropsychopharmacology, 29:1479-1487 (2004), and cortical microinjections of 10 µg/side were derived from Boulay et al. Prog. Neuropsychopharmacol. Biol. Psychiatry, 24:39-49 (2000). Naf doses below 1 mg/kg have negligible D2 receptor occupancy (Sautel et al., J. Pharmacol. Exp. Ther., 275:1239-1246 (1995)) and are behaviorally effective (Richtand et al., Brain Res., 867:239-242 (2000)). Subjects were weighed daily at 09.00 h and injected with their assigned drug; the second injection was administered 4 h later at 13.00 h. This regimen is designed to match the twice-daily dosing used by children, taking into account the higher metabolic rates of rats (Wargin et al., J. Pharmacol. Exp. Ther., 226:382-386 (1983)). After the second drug administration on P35, the rats received no further treatments until behavioral testing at P60.
Rats treated between P20 and P35 with either Naf (0, 0.05, 0.5 or 5.0 mg/kg; n=7-9), ±7-OHDPAT (0.3 mg/kg; n=9), MPH (2 mg/kg; n=9), or a combination of 2 mg/kg MPH and 0.05 mg/kg Naf (MPH/Naf; n=8) were tested at P60 for place conditioning to 10 mg/kg cocaine. According to standard laboratory methods (Andersen et al., Nat. Neurosci., 5:13-14 (2002); Carlezon, Methods Mol. Med., 84:243-249 (2003)), unbiased place conditioning chambers consisted of two large (24×18×33) side compartments separated by a small (12×18×33 cm) middle compartment. Screening was conducted for 30 min on Day 1. Rats were placed in the middle compartment and allowed to freely explore the apparatus. […] Two days of conditioning (with two sessions per day) occurred on Days 2 and 3 for 60 min (Andersen et al., Nat. Neurosci., 5:13-14 (2002); Carlezon, Methods Mol. Med., 84:243-249 (2003)). During the conditioning sessions, rats received a 1 mL/kg i.p. injection of VEH in the morning (09.00 h) and confined to one side. The rats were then returned to the home cage. Four hours later, rats received 10 mg/kg cocaine and confined to the other side. Sides differed in floor texture, wall colors and lighting, and assignments were counterbalanced. On Day 4, rats were permitted to freely explore the entire apparatus for 30 min in a drug-free state.

Sprague-Dawley male rats [2] = assay: Locomotor activity at 60 days old after juvenile ±7-OHDPAT exposure; format: in vivo; conditions: juvenile ±7-OHDPAT 0.3 mg/kg P20-P35, vs VEH
Experimental: FIG. 6. Locomotor activity in response to a 10 mg/kg challenge with cocaine on the second day of cocaine conditioning in VEH- and ±7-OHDPAT-treated subjects (n=7-8 animals per group). *P<0.05 comparing the 10 mg/kg cocaine groups.
Juvenile Sprague-Dawley male rats were treated with MPH (2 mg/kg, i.p. twice daily), ±7-OHDPAT (0.3 mg/kg, i.p. twice daily), Naf (0.05, 0.5 and 5 mg/kg; i.p. twice daily) or VEH (i.p. twice daily) between the ages of P20 and P35 (Andersen et al., Nat. Neurosci., 5:13-14 (2002)). […]
To further investigate the functional role of the D3 receptor in juvenile psychostimulant treatment, animals were pre-pubertally treated with the D3-preferring agonist ±7-OHDPAT, the D3 antagonist Naf or a MPH/Naf combination. […] Next, juvenile manipulations of the D3 receptor on place conditioning were assessed and compared with each other. […]

Sprague-Dawley male rats [3] = assay: Place conditioning to 10 mg/kg cocaine at P60 after juvenile drug exposure; format: in vivo; conditions: 10 µg/side into MPFCx during conditioning
[4] = tested on: mature and immature animals; conditions: cited from earlier work
D2 receptor = conditions: Naf doses below 1 mg/kg; cited from earlier work

| SMILES | place conditioning to 10 mg/kg cocaine associated environment (pre- vs. post-conditioning) (Sprague-Dawley male rats [1]; juvenile exposure P20-P35: MPH 2 mg/kg, ±7-OHDPAT 0.3 mg/kg, or MPH 2 mg/kg + Naf 0.05 mg/kg, tested at P60) | baseline locomotor activity (Sprague-Dawley male rats [2]; 60 days old, P>0.9) | locomotor response to 10 mg/kg cocaine challenge (Sprague-Dawley male rats [2]; second day of cocaine conditioning, P<0.05) | place conditioning to cocaine after ±7-OHDPAT microinjection into the MPFCx (Sprague-Dawley male rats [3]; MPH-exposed subjects) | place conditioning to cocaine after ±7-OHDPAT microinjection into the MPFCx (Sprague-Dawley male rats [3]; MPH-exposed subjects, listed as ±7 OHDPAT) | place conditioning to cocaine after ±7-OHDPAT microinjection into the MPFCx (Sprague-Dawley male rats [3]; VEH-exposed subjects) | place conditioning to cocaine after ±7-OHDPAT microinjection into the MPFCx (Sprague-Dawley male rats [3]; VEH-exposed subjects, listed as ±7 OHDPAT) | locomotor activity [4] | place conditioning to cocaine-associated environment (pre- vs. post-conditioning) (Sprague-Dawley male rats [1]; juvenile Naf 0.05 mg/kg i.p. twice daily P20-P35) | place conditioning to cocaine-associated environment (pre- vs. post-conditioning) (Sprague-Dawley male rats [1]; juvenile Naf 0.5 mg/kg i.p. twice daily P20-P35) | place conditioning to cocaine-associated environment (pre- vs. post-conditioning) (Sprague-Dawley male rats [1]; juvenile Naf 5.0 mg/kg i.p. twice daily P20-P35) | D2 receptor occupancy (D2 receptor) |
| --- | --- | --- | --- | --- | --- | --- | --- | --- | --- | --- | --- | --- |
| CCCN(CCC)C1CCc2ccc(O)cc2C1 (racemic) [±7-OHDPAT, ±7-hydroxy-N,N-di-n-propyl-2-aminotetralin] | Place aversion; also recorded: aversion to the cocaine-associated environment | did not differ from VEH control animals | significantly reduced | reversing the aversion to cocaine; also recorded: produced a place preference to cocaine | significant preference for cocaine-associated environments | no greater effect | significant preference for cocaine-associated environments | inhibit locomotor activity | – | – | – | – |
| CCCCN1CCCC1CNC(=O)c1cc(C#N)c2ccccc2c1OC (stereo not shown) [Naf, Nafadotride] | – | – | – | – | – | – | – | – | significant preference | significant preference | did not form such a preference | negligible |
| CCCN1CCO[C@@H]2c3cc(O)ccc3OC[C@H]21 [PD 128907] | – | – | – | – | – | – | – | inhibit locomotor activity | – | – | – | – |
